From paper PMC8316002, “Inhibition of Escherichia coli Lipoprotein Diacylglyceryl Transferase Is Insensitive to Resistance Caused by Deletion of Braun’s Lipoprotein” (Journal of Bacteriology, 2021)
Where a SMILES comes first, the peptide text is derived from it. Bridges are numbered along the chain shown (N, C = ends). [ ]: non-standard residue; d: D form. Bip = N[C@@H](Cc1ccc(-c2ccccc2)cc1)C(=O)O; NMeF = CN[C@@H](Cc1ccccc1)C(=O)O

Key:
[1] = molecular target: T1, E. coli Lgt (Escherichia coli, UniProt P60955); assay: biochemical; conditions: 3 nM Lgt-DDM, 50 μM phosphatidylglycerol, 12.5 μM Pal-IAAC, 50 mM Tris (pH 8), 0.02% DDM, 60 min at RT; luminescence; at least two independent experiments in triplicates; read-out: IC50, inhibition of Lgt biochemical activity
T1 construct: DNA encoding full-length E. coli Lgt fused to a C-terminal Flag tag; Flag (C); made in house; host or cells: E. coli Rosetta 2(DE3) Gold cells (Agilent)
T1 sequence (P60955 whole entry, the tested form may be a part): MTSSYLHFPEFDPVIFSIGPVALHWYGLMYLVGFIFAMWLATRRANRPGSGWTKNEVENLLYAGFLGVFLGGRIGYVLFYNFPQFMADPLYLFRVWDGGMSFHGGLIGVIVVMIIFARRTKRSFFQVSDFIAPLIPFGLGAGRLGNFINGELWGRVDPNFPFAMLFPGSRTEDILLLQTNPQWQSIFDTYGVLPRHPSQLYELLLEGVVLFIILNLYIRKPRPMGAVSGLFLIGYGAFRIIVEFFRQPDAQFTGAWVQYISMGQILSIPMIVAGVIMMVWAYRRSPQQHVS

[2] = test system: PA14 imp4213; assay: microbe, parasite or virus in culture; type: cell-based, P. aeruginosa; conditions: average of two independent experiments in duplicates
Experimental: Bacterial strains and plasmids used in this study are listed in Table S1 in the supplemental material. E. coli strain CFT073 (ATCC 700928) ([62]) and MG1655 (ATCC 700926) were purchased from ATCC. Gene disruption in CFT073 was performed as previously described ([17], [63]). CFT073 Δlgt and MG1655 ΔlspA were generated using λ Red recombination ([17], [63]). Plasmids pKD46 for the λ Red recombinase ([17], [63]), pKD4 or pSim18 for the integration construction ([17], [63]), and pCP20 ([64]) for the FLP recombinase were used in this study. The 3′ primers (Table S2) used to generate the integration construct from pKD4 contain a juxtaposed ribosome binding site downstream of the kanamycin (Kan) cassette to allow for the creation of nonpolar gene deletions within operons ([63]), which is critical when generating the lgt inducible deletion strain given that the ribosomal binding site of the thyA gene downstream of lgt is within the lgt coding region. The inducible deletion strains (MG1655 Δlgt and MG1655 ΔlolCDE) in either the WT and/or Δlpp backgrounds were generated using similar methods as previously described ([17], [65]). To delete lpp in the lgt, lspA, and lolCDE inducible deletion strains, the Kan cassette was removed by transforming the FLP recombinase-expressing pCP20 plasmid followed by deletion of the lpp gene using λ Red recombinase as discussed above. Similar protocols were used to introduce the imp4213 mutant allele. The PA14 imp4213 strain was generated based on published protocols ([66][–][68]). Briefly, the lptD imp4213 mutant allele was generated by PCR amplifying PA14 genomic DNA using primer pairs PA14imp4213_up-F/PA14imp4213_up-R (upstream region) and PA14imp4213_dn-F/PA14imp4213_dn-R (downstream region) to create lptD missing amino acids 425 to 447. PCR products were combined with the PCR-amplified vector pEX18gm with primers pLMG18_GA-F/pLMG18_GA-R and assembled using Gibson assembly (NEB). The resultant suicide vector pEX18gm was confirmed by sequence analysis (ELIM Biopharm). […]
Unless stated otherwise, E. coli cells were grown in Luria-Bertani (LB) medium (0.5% yeast extract, 1% tryptone, 0.5% NaCl) at 37°C. […] Growth of MG1655 inducible deletion strains was measured by culturing in the presence of 2-fold dilutions of arabinose (starting arabinose concentrations for CFT073 and MG1655 inducible deletion strains were 4% and 0.8%, respectively). While 2% arabinose was sufficient for WT growth of MG1655 Δlgt, 4% arabinose was used for CFT073 Δlgt based on comparing its growth to that of WT CFT073 as measured by CFU. OD600 growth measurements were performed using an EnVision 2101 multilabel reader plate reader (PerkinElmer) linked with Echo liquid handler (Labcyte). […]

[3] = Solubility (remark); type: physicochemical; conditions: prevented agar plate-based resistance selections
[4] = test system: CFT073 imp4213 Δlpp; assay: Time-kill, CFT073 imp4213 versus CFT073 imp4213 Δlpp; type: cell-based, E. coli; conditions: 12.5 μM G2824, 3.2 μM globomycin or 1.6 μM vancomycin, CFU, two independent experiments in triplicates
Experimental: To compare the rate of bactericidal killing of G2824 with that of globomycin, we treated CFT073 imp4213 and CFT073 imp4213 Δlpp cells with G2824 and globomycin at 2× MIC of the respective inhibitors against CFT073 imp4213 and enumerated viable CFU counts.
Unless stated otherwise, E. coli cells were grown in Luria-Bertani (LB) medium (0.5% yeast extract, 1% tryptone, 0.5% NaCl) at 37°C. Where indicated, kanamycin (Kan) was added to culture media at a 50-μg/ml final concentration. MIC assays were performed based on Clinical and Laboratory Standards Institute (CLSI) guidelines. […] Growth of MG1655 inducible deletion strains was measured by culturing in the presence of 2-fold dilutions of arabinose (starting arabinose concentrations for CFT073 and MG1655 inducible deletion strains were 4% and 0.8%, respectively). While 2% arabinose was sufficient for WT growth of MG1655 Δlgt, 4% arabinose was used for CFT073 Δlgt based on comparing its growth to that of WT CFT073 as measured by CFU. OD600 growth measurements were performed using an EnVision 2101 multilabel reader plate reader (PerkinElmer) linked with Echo liquid handler (Labcyte). […] Bacterial viability at different time points during the treatment was measured by enumerating CFU. […]

| SMILES | IC50 [1] [nM] | MIC [2] [µM] | solubility [3] | MIC ([2]; Pseudomonas aeruginosa) [µM] | effect of lpp deletion on bactericidal killing [4] |
| --- | --- | --- | --- | --- | --- |
| CN1C(=O)[C@H](Cc2ccc(-c3ccccc3)cc2)NC(=O)CNC(=O)[C@H](CC(=O)O)NC(=O)[C@@H](Cc2ccccc2)NC(=O)CSC[C@@H](C(=O)NCC(=O)N[C@@H](CCCCN)C(=O)N[C@@H](CCCCN)C(N)=O)NC(=O)[C@H](CCCNC(=N)N)NC(=O)[C@H](CO)NC(=O)[C@H](Cc2ccc(-c3ccccc3)cc2)NC(=O)[C@@H]1Cc1ccccc1 [G2824] ({CH2CO}-[dF]DG[Bip][NMeF][Bip]SRCGKK-NH2; thioether N-9) | 180 | 6.3 | solubility issues | – | – |
| CN[C@H](CC(C)C)C(=O)N[C@H]1C(=O)N[C@@H](CC(N)=O)C(=O)N[C@H]2C(=O)N[C@H]3C(=O)N[C@H](C(=O)N[C@H](C(=O)O)c4cc(O)cc(O)c4-c4cc3ccc4O)[C@H](O)c3ccc(c(Cl)c3)Oc3cc2cc(c3O[C@@H]2O[C@H](CO)[C@@H](O)[C@H](O)[C@H]2O[C@H]2C[C@](C)(N)[C@H](O)[C@H](C)O2)Oc2ccc(cc2Cl)[C@H]1O [Vancomycin] | – | – | – | 12.5 | equivalent killing of CFT073 imp4213 and CFT073 imp4213 Δlpp at 5 h posttreatment |
| CN1C(=O)[C@H](Cc2ccc(-c3ccccc3)cc2)NC(=O)CNC(=O)[C@H](CCCNC(=N)N)NC(=O)[C@@H](Cc2ccccc2)NC(=O)CSC[C@@H](C(=O)NCC(N)=O)NC(=O)[C@H](CCCNC(=N)N)NC(=O)[C@H](CO)NC(=O)[C@H](Cc2ccc(-c3ccccc3)cc2)NC(=O)[C@@H]1Cc1ccccc1 [G9066] ({CH2CO}-[dF]RG[Bip][NMeF][Bip]SRCG-NH2; thioether N-9) | 240 | 6.3 | – | – | – |
| CCCCCC[C@H]1OC(=O)CNC(=O)[C@H]([C@H](C)O)NC(=O)[C@H](CO)NC(=O)[C@H]([C@H](C)CC)NC(=O)[C@H](CC(C)C)N(C)C(=O)[C@@H]1C [Globomycin] | – | 50 | – | – | lost in the absence of lpp |
